These are literature values, as cited in PubChem BioAssay AID1259409 (Chemical Carcinogenesis Research Information System (CCRIS), 2018).

The data set deals with rodent chemically induced tumor inhibition, incidence and multiplicity. As to the kind of experiment: CCRIS tumor inhibitor studies.

In the case of `O=c1c(O)c(-c2ccc(O)c(O)c2)oc2cc(O)cc(O)c12`, the “tumour outcome (control, treated, inhibition, significance)” value is 13/50 (26%), 0/50 (0%), 100%, not calculated (Carcinogen: BENZO[A]PYRENE, 50-32-8, Dose [Inhibitor]: 25 MG IN 0.1 ML DMSO 3/WK, ADMINISTERED SIMULTANEOUSLY WITH CARCINOGEN FOR DURATION OF STUDY (STUDY DURATION: 368 D), Route [Inhibitor]: DERMAL, Species: MOUSE, Strain/Sex: ICR/FEMALE, Target Tissue: Type of Lesion: SKIN: PAPILLOMA, Dose [Carcinogen]: 5 UG IN 0.1 ML DMSO THAT ALSO CONTAINED AGENT 3/WK FOR DURATION OF STUDY, Promoter: NONE USED); 90%, 82%, 9%, not calculated (Carcinogen: BENZO[A]PYRENE, 50-32-8, Dose [Inhibitor]: 100 UG IN 0.2 ML ACETONE ONCE 5 MINUTES BEFORE CARCINOGEN TREATMENT (STUDY DURATION: 31 WK), Route [Inhibitor]: DERMAL, Species: MOUSE, Strain/Sex: CD-1/FEMALE, Target Tissue: Type of Lesion: SKIN: PAPILLOMA, Dose [Carcinogen]: 400 NMOL IN 0.2 ML ACETONE ONCE, Promoter: 12-O-TETRADECANOYLPHORBOL-13-ACETATE, 16561-29-8); 4/14 (29%), 4/13 (31%), -7%, not significant (Carcinogen: DIETHYLNITROSAMINE, 55-18-5, N-METHYLNITROSOUREA, 684-93-5, 1,2-DIMETHYLHYDRAZINE, 540-73-8, N-BUTYL-N-(4-HYDROXYB, Carcinogen: DIETHYLNITROSAMINE, 55-18-5, N-METHYLNITROSOUREA, 684-93-5, 1,2-DIMETHYLHYDRAZINE, 540-73-8, N-BUTYL-N-(4-HYDROXYB, Dose [Inhibitor]: 0, 1% IN DIET FOR 4 WK BEGINNING 1 DAY PRIOR TO CARCINOGEN TREATMENT (STUDY DURATION: 36 WK), Route [Inhibitor]: ORAL, Species: RAT, Strain/Sex: F344/MALE, Target Tissue: Type of Lesion: KIDNEY: ADENOMA, Dose [Carcinogen]: 100 MG/KG DEN ONCE, 20 MG/KG MNU 4 TIMES, 40 MG/KG DMH 4 TIMES, 0.05% BBN IN DRINKING WATER FOR 2 WK, 0.1% DHPN IN D, Dose [Carcinogen]: 100 MG/KG DEN ONCE, 20 MG/KG MNU 4 TIMES, 40 MG/KG DMH 4 TIMES, 0.05% BBN IN DRINKING WATER FOR 2 WK, 0.1% DHPN IN D, Promoter: NONE USED); 7/14 (50%), 6/13 (46%), 8%, not significant (Carcinogen: DIETHYLNITROSAMINE, 55-18-5, N-METHYLNITROSOUREA, 684-93-5, 1,2-DIMETHYLHYDRAZINE, 540-73-8, N-BUTYL-N-(4-HYDROXYB, Carcinogen: DIETHYLNITROSAMINE, 55-18-5, N-METHYLNITROSOUREA, 684-93-5, 1,2-DIMETHYLHYDRAZINE, 540-73-8, N-BUTYL-N-(4-HYDROXYB, Dose [Inhibitor]: 0, 1% IN DIET FOR 4 WK BEGINNING 1 DAY PRIOR TO CARCINOGEN TREATMENT (STUDY DURATION: 36 WK), Route [Inhibitor]: ORAL, Species: RAT, Strain/Sex: F344/MALE, Target Tissue: Type of Lesion: KIDNEY: NEPHROBLASTOMA, Dose [Carcinogen]: 100 MG/KG DEN ONCE, 20 MG/KG MNU 4 TIMES, 40 MG/KG DMH 4 TIMES, 0.05% BBN IN DRINKING WATER FOR 2 WK, 0.1% DHPN IN D, Dose [Carcinogen]: 100 MG/KG DEN ONCE, 20 MG/KG MNU 4 TIMES, 40 MG/KG DMH 4 TIMES, 0.05% BBN IN DRINKING WATER FOR 2 WK, 0.1% DHPN IN D, Promoter: NONE USED); 7/14 (50%), 5/13 (38%), 24%, not significant (Carcinogen: DIETHYLNITROSAMINE, 55-18-5, N-METHYLNITROSOUREA, 684-93-5, 1,2-DIMETHYLHYDRAZINE, 540-73-8, N-BUTYL-N-(4-HYDROXYB, Carcinogen: DIETHYLNITROSAMINE, 55-18-5, N-METHYLNITROSOUREA, 684-93-5, 1,2-DIMETHYLHYDRAZINE, 540-73-8, N-BUTYL-N-(4-HYDROXYB, Dose [Inhibitor]: 0, 1% IN DIET FOR 4 WK BEGINNING 1 DAY PRIOR TO CARCINOGEN TREATMENT (STUDY DURATION: 36 WK), Route [Inhibitor]: ORAL, Species: RAT, Strain/Sex: F344/MALE, Target Tissue: Type of Lesion: LARGE INTESTINE: ADENOMA, Dose [Carcinogen]: 100 MG/KG DEN ONCE, 20 MG/KG MNU 4 TIMES, 40 MG/KG DMH 4 TIMES, 0.05% BBN IN DRINKING WATER FOR 2 WK, 0.1% DHPN IN D, Dose [Carcinogen]: 100 MG/KG DEN ONCE, 20 MG/KG MNU 4 TIMES, 40 MG/KG DMH 4 TIMES, 0.05% BBN IN DRINKING WATER FOR 2 WK, 0.1% DHPN IN D, Promoter: NONE USED); 3/14 (21%), 5/13 (38%), -81%, not significant (Carcinogen: DIETHYLNITROSAMINE, 55-18-5, N-METHYLNITROSOUREA, 684-93-5, 1,2-DIMETHYLHYDRAZINE, 540-73-8, N-BUTYL-N-(4-HYDROXYB, Carcinogen: DIETHYLNITROSAMINE, 55-18-5, N-METHYLNITROSOUREA, 684-93-5, 1,2-DIMETHYLHYDRAZINE, 540-73-8, N-BUTYL-N-(4-HYDROXYB, Dose [Inhibitor]: 0, 1% IN DIET FOR 4 WK BEGINNING 1 DAY PRIOR TO CARCINOGEN TREATMENT (STUDY DURATION: 36 WK), Route [Inhibitor]: ORAL, Species: RAT, Strain/Sex: F344/MALE, Target Tissue: Type of Lesion: LARGE INTESTINE: CARCINOMA, Dose [Carcinogen]: 100 MG/KG DEN ONCE, 20 MG/KG MNU 4 TIMES, 40 MG/KG DMH 4 TIMES, 0.05% BBN IN DRINKING WATER FOR 2 WK, 0.1% DHPN IN D, Dose [Carcinogen]: 100 MG/KG DEN ONCE, 20 MG/KG MNU 4 TIMES, 40 MG/KG DMH 4 TIMES, 0.05% BBN IN DRINKING WATER FOR 2 WK, 0.1% DHPN IN D, Promoter: NONE USED).
